Assay in all cases: inhibition of tumour cell growth, NCI panel, 48 h
Assay [1] has as its system A549 NSCLC.
For assay [2], the system named is COLO 205 colon.
In assay [3] the test system is HCT-116 colon.
The subject of assay [4] is HCT-15 colon.
Assay [5] concerns HS 578T breast.
The test system of assay [6] is KM12 colon.
Assay [7] has as its system LOX IMVI melanoma.
Assay [8] deals with M14 melanoma.
Assay [9] relates to MOLT-4 leukemia.
The subject of assay [10] is NCI-H226 lung.
Assay [11] deals with OVCAR-8 ovarian.
In assay [12] the test system is PC-3 prostate.
The test system of assay [13] is RPMI-8226 leukemia.
In assay [14] the test system is RXF 393 renal.
For assay [15], the system named is SF-268 CNS.
The subject of assay [16] is SF-295 CNS.
Assay [17] concerns SK-MEL-5 melanoma.
In assay [18] the test system is UACC-62 melanoma.
In assay [19] the test system is UO-31 renal.
Assay [20] concerns SNB-75 CNS.

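Values below derive from 48-hour exposures of cells grown in 96-well plates, with endpoints linearly interpolated between the two concentrations bracketing the appropriate inhibition level. At the TGI there is no net growth.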

For `C[N+]1(C)CCc2cc(O)c(O)cc2C1Cc1ccc(O)c(O)c1` (stereo unspecified), the TGI in assay [1] is over 100 µM; in assay [2], over 100 µM; in assay [3], 47.8 µM; in assay [4], over 100 µM; in assay [5], over 100 µM; in assay [6], over 100 µM. The TGI in assay [7] was 81 µM; in [8], over 100 µM; in assay [9], 68.8 µM; in assay [10], over 100 µM; in [11], over 100 µM; in assay [12] it was over 100 µM. Also, the TGI in [13] is 65.9 µM; in assay [14], over 100 µM; in assay [15] it was over 100 µM; in [16], over 100 µM; in assay [17] it was over 100 µM; in [18] it was over 100 µM. Besides, the TGI in [19] was over 100 µM.

Consider `C=CCCC1(CC(Sc2ccccc2)P(=O)(c2ccccc2)c2ccccc2)OCCO1` (stereo unspecified), for which the TGI in assay [1], in [2], in [3], in assay [4], in assay [5] and in [6] was over 10 µM throughout. The TGI in [7], in assay [8], in assay [9], in [10], in assay [11] and in assay [12] was over 10 µM throughout. The TGI in assay [13], in assay [14], in assay [15], in [16], in assay [17] and in assay [18] was over 10 µM each time. Besides, in [19], the TGI was over 10 µM.

Regarding `COC(=O)Nc1nc2ccc(S(=O)(=O)SC)cc2[nH]1`, the TGI in assay [1] is over 100 µM; in assay [2], over 100 µM; in assay [3] it was 24.5 µM; in assay [4] it was 19.4 µM; in assay [5], over 100 µM; in assay [6], over 100 µM. The TGI is 22.1 µM in [7]; 18.4 µM in [8]; over 100 µM in assay [9]; over 100 µM in assay [10]; 30.6 µM in assay [11]; 16.2 µM in assay [12]. Also, the TGI in assay [13] was over 100 µM; in [14] it was 17.9 µM; in assay [15], over 100 µM; in [16], over 100 µM; in [17], over 100 µM; in [18], 22.5 µM.

Take `CC1S/C(=N\N=C2/C(=O)Nc3ccc(Br)cc32)N(C2CCCCC2)C1=O` (stereo unspecified): the TGI in assay [1] was found to be 12.6 µM; in assay [2], 33.4 µM; in [3] it was 6.61 µM; in [4] it was 16 µM; in [5] it was 14.4 µM; in [6], 20.8 µM. For the same compound, the TGI in assay [7] is 13.6 µM; in assay [8] it was 22.7 µM; in assay [9], over 100 µM; in assay [10], 18 µM; in assay [12] it was 19.9 µM; in assay [13] it was over 100 µM. Further, the TGI in [14] is 14.9 µM; in assay [15], 22.3 µM; in assay [16], 16.8 µM; in assay [17], over 100 µM; in assay [18], 6.75 µM; in assay [19], 3.08 µM.

For `O=C1NC2O[C@H](CNC(=O)c3cc(Br)c[nH]3)CC2(O)N1` (mixture of isomers), the TGI in [1], in assay [2], in [3], in assay [4], in [5] and in [6] was over 100 µM in each case. Moreover, the TGI in assay [8], in assay [9], in assay [10], in assay [11], in assay [12] and in assay [13] was over 100 µM in each case. Moreover, the TGI in [15], in assay [16], in assay [17], in assay [20], in assay [18] and in assay [19] was over 100 µM each time.

In the case of `O=C(c1cccs1)N1CCc2ccccc2C1`, the TGI in assay [1], in assay [2], in [3], in assay [4], in assay [5] and in assay [6] was over 100 µM in each case. Besides, the TGI in assay [7], in assay [8], in assay [9], in assay [10], in assay [12] and in assay [13] was over 100 µM in each case. Also, the TGI in assay [14], in [15], in [16], in assay [17], in [18] and in assay [19] was over 100 µM throughout.

On to `CCCCC1Cc2ccccc2-c2nc3ccccc3n21` (stereo unspecified), for which the TGI in assay [3] was 26.6 µM; in assay [4] it was 28.4 µM; in assay [5] it was 35.4 µM; in assay [6], 38.5 µM; in assay [7] it was 31.6 µM; in assay [8], 36.3 µM. The TGI in [9] was found to be 32.9 µM; in assay [10], 39.5 µM; in [11] it was 34.9 µM; in [12], 22.1 µM; in assay [13], 32.5 µM; in assay [14], 34.5 µM. Also, the TGI was determined as 33 µM in [15], 30.8 µM in assay [16], 31.1 µM in assay [17] and 36.1 µM in assay [19].

As to `C[C@@H](c1ccccc1)n1c(N)c(C#N)c2ccc([N+](=O)[O-])cc2c1=O`, the TGI in assay [1] is over 100 µM; in assay [2], 30.8 µM; in assay [3], 28.8 µM; in assay [4], 28.2 µM; in [5], 69.4 µM; in assay [6], 42.8 µM. Further, the TGI in assay [7] was 34.9 µM; in [10], 13.2 µM; in assay [11] it was 30.6 µM; in assay [12] it was over 100 µM; in [15], over 100 µM; in assay [17], 50.8 µM. Also, the TGI worked out at 46.2 µM in assay [20], 30.4 µM in [18] and 24.1 µM in assay [19].

The record behind these values is PubChem BioAssay (NCI).
